Measured values from patent publication US20190048052A1, “ANTI-MICROBIAL PEPTIDES AND COATINGS” (Board of Regents of the University of Nebraska, priority 2016, published 2019).
Converted amounts (≈) assume the structure as drawn. Residues, ends and D or L forms follow the SMILES beside them.

Columns and labels:
E. coli ATCC 25922 [1] = type: cell-based, Escherichia coli; details: ATCC 25922
Description: (§1) Bacterial strains used in this study included Enterococcus faecium ATCC51559, Staphylococcus aureus USA300 LAC, Klebsiella pneumoniae ATCC 13883, Acinetobacter baumannii B2367-12, Pseudomonas aeruginosa PAO1, Enterobacter cloacae B2366-12 and Escherichia coli ATCC 25922, wherein the first six constituting the ESKAPE pathogens. Tryptic soy broth (TSB) for bacterial growth was obtained from BD Bioscience (Sparks, Md.).
(§2) The antibacterial activity of peptides was evaluated using a standard broth microdilution protocol as described (Wang et al. (2012) Antimicrob. Agents Chemother., 56:845-856). In brief, 5 μl of each bacterium (stored at −80° C.) were inoculated into TSB medium (2 ml) and grown overnight. A second inoculation was made in the morning by delivering 10 μl of the overnight culture to a fresh TSB medium. After 2-3 hours growth at 37° C., 225 rpm, logarithmic phase bacterial cultures (OD600≈0.5) were diluted and partitioned into a 96-well polystyrene microplate with ˜10^5 colony forming units (CFU) per well (90 μl aliquots). After treatment with 10 μl of peptide solutions at various concentrations, microplates were incubated at 37° C. overnight and read on a ChroMate® 4300 Microplate Reader at 630 nm (GMI, Ramsey, Minn.). The medium was used as a blank where no bacteria should grow.

E. cloacae B2366-12 = type: cell-based, Enterobacter cloacae; details: B2366-12
Description: as §1, §2

[2] = test system: human red blood cells (hRBC); type: cell-based; details: red cells of human
Description: Blood was obtained from the Blood Bank of the University of Nebraska Medical Center (UNMC) and washed three times (800 g, 10 minutes) with normal saline to remove plasma. A final solution containing 2% human red blood cells (hRBC) was then prepared in normal saline and used for the assay. 90 μl of this solution were added to 10 μl of serially diluted peptide solutions and incubated at 37° C. for 1 hour. It was then centrifuged at 15,700 g for 5 minutes on an Eppendorf® bench-top centrifuge 5415D. Aliquots of the supernatant (˜80 μl) were carefully transferred to a fresh 96-well microplate (Costar, Corning, N.Y.) and absorbance was read at 545 nm to detect the amount of hemoglobin released. Percent lysis was calculated based on the extent of hemoglobin released, where 100% release is assumed in the presence of 1% TRITON™ X-100 and 0% release is assumed in saline.

A. baumannii B2367-12 = type: cell-based, Acinetobacter baumannii; details: B2367-12
Description: as §1, §2

P. aeruginosa PAO1 = type: cell-based, Pseudomonas aeruginosa; details: PAO1
Description: as §1, §2

ESKAPE pathogens = type: cell-based
Description: as §1, §2

S. aureus USA300 LAC = type: cell-based, Staphylococcus aureus; details: USA300
Description: as §1, §2

E. faecium ATCC51559 = type: cell-based, Enterococcus faecium; details: ATCC51559
Description: as §1, §2

[3] = Cytotoxicity of soluble peptide (MTS); type: cell-based; details: human, HaCaT cells; free peptide; read-out: 50% lethal concentration (LC50) to HaCaT cells
Description: In vitro spontaneously transformed keratinocytes from histologically normal human skin (HaCaT cells) from Fisher (Hampton, N.H.) (Cat # T0020001) were maintained in DMEM high glucose medium with 4 mM L-glutamine (HyClone, South Logan, Utah) and 100 U ml^−1 penicillin, 100 μg ml^−1 streptomycin (pen/strep, p/s) (Life Technologies, Carlsbad, Calif.), and 10% (v v^−1) inactivated fetal bovine serum (FBS, NyClone), DMEM with 10% FBS, p/s. Cells were grown in 5% CO2 at 37° C. and were detached from culturing dish at 100% confluency by treating with 0.025% trypsin-EDTA (NyClone), seeded (100,000 cells well^−1) in 24-well plates (Corning Life Science, Salt Lake City, Utah) and grown overnight in 200 μl of DMEM medium to reach a 70% confluency. The peptide-coated surfaces (1.0×1.0 cm) were placed in a 24-well plate DMEM with or without 10% FBS, p/s for 1 hour. Samples were taken out and 60 μl of CellTiter96® MTS were added. Plates were further incubated for another 2 hours at 37° C. Subsequently, 100 μl of the solution were placed in a clean 96-well plate to measure the absorbance at 492 nm on a ChroMate® reader (GMI). For comparison, the toxicity of the soluble peptides was also measured and they were treated in the same way as described above. The culture medium and a 0.2% SDS solution were used as negative and positive controls, respectively.

S. aureus USA300 [4] = type: cell-based, Staphylococcus aureus; details: 12.5 μM
Description: Two types of experiments were conducted to evaluate the anti-biofilm activity of these peptides against S. aureus USA300 grown under a static condition for 24 hours to form established biofilms in presence of tryptic soy broth (TSB). The experiment was set up using a flat bottom, 96-well, polystyrene microtiter plates (Corning, COSTAR). In short, S. aureus USA300 (10^5 CFU/mL) in fresh TSB media was made from an exponentially growing culture. 200 μL of this bacterial culture was added to each well of the microtiter plates. The plates are then incubated at 37° C. for 24 hours to allow biofilm formation. Media was then carefully removed followed by washing with sterile 1×PBS to remove any unattached bacteria. Solution containing μL of 10× peptide solution and 180 μL of fresh TSB were added. The plates were again incubated at 37° C. for another 24 hours. To measure the extent of biofilm disruption by the peptides as a function of biofilm reduction, crystal violet staining was performed. Media was pipetted out and the wells were carefully washed with 200 μL of PBS to remove the loosely attached cells. Subsequently, 200 μL of 99% methanol was added for fixation and the plates were allowed to sit for 15 minutes. The plates were finally aspirated and dried. Lastly, staining was done with 200 μL of 1% crystal violet in water for 5 minutes. Excess stain was gently rinsed off with tap water, and plates were air-dried. Further, stains were solubilized in 200 μL of 33% glacial acetic acid followed by colorimetric measurement at 600 nm on a Chromate® microtiter plate reader. The amounts of biofilm growth with and without compound treatments were calculated.
In addition, live cell contents of the peptide acted biofilms was estimated by XTT [2,3-bis(2-methyloxy-4-nitro-5-sulfophenyl)-2H-tertazolium-5-carboxanilide]assay by following the manufacturer's instructions with modifications. A 10% XTT solution in TSB media was added to each well and the plates were again incubated for 2 hours at 37° C. Absorbance at 450 nm (only media with XTT containing wells served as the blank) was obtained using Chromate® microtiter plate reader. Percentage of biofilm reduction for the peptide was plotted assuming 100% biofilm growth is achieved on the bacterial wells without peptide treatment.

S. aureus USA300 [5] = assay: Confocal microscopy of preformed biofilms (Example 3); type: cell-based, Staphylococcus aureus
Description: S. aureus USA300 (10^5 CFU/mL) was made from exponentially growing bacteria. 1800 μL was added to the chamber of cuvettes (Borosilicate cover glass systems), and was incubated for 37° C., 24 hours for biofilm formation. Media was then pipetted out and chambers were washed with 1×PBS to remove non-adhered cells. To disrupt the preformed biofilms, 200 μL of 10× stocks of the peptide was added followed by 1800 μL of TSB. Control cuvettes contained water instead of peptide. The cuvettes were again incubated for another 24 hours at 37° C. Subsequently, the supernatant was pipetted out and the chambers were washed with 1×PBS. For evaluation under confocal microscope the biofilms were stained with 10 μL of LIVE/DEAD® kit (Invitrogen Molecular Probes) according to the manufacturer's instructions. The samples were examined with a confocal laser scanning microscope (Zeiss 710) and the data processed using Zen 2010 software.

S. aureus USA300 [6] = assay: Live cell penetration experiment (FITC, confocal); type: cell-based, Staphylococcus aureus; details: peptide and FITC 12.5 μM
Description: The entrance of a fluorescent dye into live bacterial cells was followed by confocal microscopy (Mishra et al. (2015) RSC Advances 5:59758-59769). In short, S. aureus USA300 was grown to the exponential phase from the overnight culture. The cells were then washed twice with fresh 1×PBS (pH 7.2) and the final cell density was adjusted to 1×10^8 CFU/mL. 1500 μL of the culture was added to the chambers of cuvettes (borosilicate cover glass systems) with equimolar concentrations of TetraF2W-RK and fluorescein isothiocyanate FITC (12.5 μM). The samples were examined with a confocal laser scanning microscope (Zeiss 710) with a series of live time pictures taken at every 5 seconds for 5 minutes and the data were processed using Zen 2010 software.

human red blood cells = assay: Hemolytic ability (Example 3); type: cell-based; details: concentration that causes 50% hemolysis
Description: Hemolytic analysis of selected peptides was performed using an established protocol. Briefly, human blood cells (UNMC Blood Bank) were washed three times with phosphate buffer saline (PBS) and diluted to a 2% solution. After peptide treatment, incubation at 37° C. for one hour, and centrifugation at 13,000 rpm, aliquots of the supernatant were transferred to a fresh 96-well microplate. To assess peptide cytotoxicity, the amount of hemoglobin released was measured at 545 nm. The percent lysis was calculated by assuming 100% release when human blood cells were treated with 1% TRITON™ X-100, and 0% release when incubated with PBS buffer.

S. aureus USA300 [7] = assay: Growth inhibition in TSB media (FIG. 15A); type: cell-based, Staphylococcus aureus; details: 3.1 μM (printed 3.1 LM), 37° C.
Description: FIGS. 15A and 15B show the growth inhibition (FIG. 15A) and propidium iodide-based membrane permeation (FIG. 15B) of S. aureus USA300 in TSB media by 3.1 μM of TetraF2W-RR and its single arginine variants (Table 8) at 37° C. with shaking at 100 rpm.
Fluorescence spectroscopy was also used to follow bacterial killing. In brief, μL of serially diluted 10× peptide concentrations were done in 96-well coming COSTAR microtiter plates. Propidium iodide at a fixed concentration of 20 μM per well was added to each well which was finally incubated with 88 μL of S. aureus USA300 (with a final OD600 0.1) with continuous shaking at 100 rpm with meander corner well shaking, 37° C. in a FLUOstar® Omega (BMG LABTECH Inc., NC) microplate reader. The plates were read every 5 minutes for a total duration of 2 hours with excitation and emission wavelengths at 584 nm and 620 nm, respectively.

E. coli ATCC 25922 [8] = type: cell-based, Escherichia coli; details: ATCC 25922, 20 h
Description: (§3) The antimicrobial activity of peptides was evaluated using a standard broth microdilution protocol. In brief, exponential phase bacteria at 10^6 CFU were incubated with serially diluted peptides overnight for ˜20 hours at 37° C. The plates were read on a ChroMate® 4300 Microplate Reader at 630 nm (GMI, Ramsey, Minn.).

S. aureus USA300 [9] = type: cell-based, Staphylococcus aureus
Description: as §3

## CC[C@H](C)[C@H](NC(=O)[C@H](CCCNC(=N)N)NC(=O)[C@H](CCC(N)=O)NC(=O)[C@@H](NC(=O)[C@@H](NC(=O)[C@H](CCCNC(=N)N)NC(=O)[C@H](CCCCN)NC(=O)[C@@H](N)Cc1ccccc1)[C@@H](C)CC)C(C)C)C(=O)N[C@@H](CCCCN)C(=O)N[C@@H](CC(=O)O)C(=O)N[C@@H](Cc1ccccc1)C(=O)N[C@@H](CC(C)C)C(=O)N[C@@H](CCCNC(=N)N)C(=O)N[C@@H](CC(N)=O)C(=O)N[C@@H](CC(C)C)C(=O)N[C@H](C(=O)N[C@@H](CS)C(=O)O)C(C)C [FK-16Cys] (H-FKRIVQRIKDFLRNLVC-OH; N-terminus and C-terminus assumed)
E. coli ATCC 25922 [1]
  MIC EC: 37.5 ± 17.6 µM (≈ 80.6 µg/mL)
E. cloacae B2366-12
  MIC ECl: 50 ± 0 µM (≈ 107 µg/mL)
[2]
  50% hemolytic concentration (HL50): ~35 µM
A. baumannii B2367-12
  MIC AB: 12.5 ± 0 µM (≈ 26.9 µg/mL)
P. aeruginosa PAO1
  MIC PA: >50 µM
ESKAPE pathogens
  MIC range against almost all / most of the tested strains: 12.5 to 50 µM
S. aureus USA300 LAC
  MIC SA: 18 ± 7.2 µM (≈ 38.7 µg/mL)
E. faecium ATCC51559
  MIC EF: 12.5 ± 0 µM (≈ 26.9 µg/mL)
[3]
  CC50 at 1 hour: > 100 µM

## CC(C)C[C@H](NC(=O)[C@H](Cc1c[nH]c2ccccc12)NC(=O)[C@H](Cc1c[nH]c2ccccc12)NC(=O)[C@@H](N)Cc1c[nH]c2ccccc12)C(=O)N[C@@H](CCCNC(=N)N)C(=O)N[C@@H](CCCNC(=N)N)C(=O)N[C@@H](CCCNC(=N)N)C(=O)N[C@@H](Cc1c[nH]c2ccccc12)C(N)=O [Peptide I7R, WWWLRRRW] (H-WWWLRRRW-NH2; N-terminus assumed)
S. aureus USA300 [4]
  killing in preformed biofilms (XTT): 80%
S. aureus USA300 [5]
  killing in 24 hour preformed biofilms (LIVE/DEAD confocal): the majority of cells are red
S. aureus USA300 [6]
  time to entry of FITC into bacteria after peptide treatment: 28 s
Human red blood cells
  HL50: 150 µM
S. aureus USA300 [7]
  growth inhibition of S. aureus USA300: almost equally effective to the WT
E. coli ATCC 25922 [8]
  E. coli (MIC): 6.2 µM
S. aureus USA300 [9]; HL50 human red blood cells / MIC S. aureus USA300
  cell selectivity index (ratio of HL50 and MIC): 48
S. aureus USA300 [9]; USA300, 20 h
  S. aureus (MIC): 3.1 µM
